Source: publication PMC9973015 (mBio, 2023)

Tests used:
SARS-CoV-2 WT-GHB-03021 = assay: microbe, parasite or virus in culture; type: cell-based; conditions: Severe acute respiratory syndrome coronavirus 2, Vero C1008, read-out: SARS-CoV-2 WT-GHB-03021 EC50
human cathepsin L = human cathepsin L (Homo sapiens, UniProt P07711); assay: biochemical
in vitro = conditions: African green monkey
SARS-CoV-2 WT-USA-WA1 = assay: microbe, parasite or virus in culture; type: cell-based; conditions: Severe acute respiratory syndrome coronavirus 2, Vero C1008, read-out: SARS-CoV-2 WT-USA-WA1 EC50

human cathepsin L, sequence (P07711 114-333): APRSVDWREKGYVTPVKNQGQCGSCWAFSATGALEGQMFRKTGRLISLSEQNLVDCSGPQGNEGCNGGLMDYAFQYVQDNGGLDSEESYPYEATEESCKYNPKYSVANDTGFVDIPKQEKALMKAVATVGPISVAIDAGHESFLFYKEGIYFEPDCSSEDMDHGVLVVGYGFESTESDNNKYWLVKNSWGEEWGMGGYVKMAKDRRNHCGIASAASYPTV

SMILES | EC50 (SARS-CoV-2 WT-GHB-03021) | IC50 (human cathepsin L) | CC50 (in vitro) | EC50 (SARS-CoV-2 WT-USA-WA1) | effect on the viability of uninfected host cells (VeroE6 cells)
COc1cccc2[nH]c(C(=O)N3C[C@@H]4CCC[C@@H]4[C@H]3C(=O)N[C@@H](C[C@@H]3CCCNC3=O)C(=O)CO)cc12 [ALG-097161, (1S,3aR,6aS)-N-((S)-4-Hydroxy-3-oxo-1-((S)-2-oxopiperidin-3-yl)butan-2-yl)-2-(4-methoxy-1H-indole-2-carbonyl)octahydrocyclopenta[c]pyrrole-1-carboxamide] | 0.59 µM | > 10 µM | > 10 µM | 0.6 µM | no effect
Cn1cnc(Cn2c(=O)[nH]/c(=N\c3cc4cn(C)nc4cc3Cl)n(Cc3cc(F)c(F)cc3F)c2=O)n1 [Ensitrelvir, ensitrelvir] | – | > 10 µM | – | 0.21 µM | –
CC(C)(C)[C@H](NC(=O)C(F)(F)F)C(=O)N1C[C@H]2[C@@H]([C@H]1C(=O)N[C@H](C#N)C[C@@H]1CCNC1=O)C2(C)C [Nirmatrelvir, nirmatrelvir] | 0.12 µM | – | > 10 µM | 0.11 µM | –
COc1cccc2[nH]c(C(=O)N[C@@H](CC(C)C)C(=O)N[C@@H](C[C@@H]3CCNC3=O)C(=O)CO)cc12 [PF-00835231] | 0.19 µM | 0.13 µM | > 10 µM | – | –
